From US12391675B2, “NLRP3 modulators” (INNATE TUMOR IMMUNITY, INC., priority 2019, dated 2025) come the findings set out here.

In one assay the target is T1, NLRP3 (Homo sapiens, UniProt Q96P20).
T1 construct: host or cells: PMA-differentiated THP-1 cells
In words: Measurement of IL-1β production in PMA-differentiated THP-1 cells (NLRP3 hIL1B EC50). The format is cell-based. Here is the method: Measurement of IL-1β Production in PMA-Differentiated THP-1 Cells
THP-1 cells were purchased from the American Type Culture Collection and sub-cultured according to instructions from the supplier. Prior to experiments, cells were cultured in RPMI 1640 containing 10% heat inactivated FBS, penicillin (100 units/ml) and streptomycin (100 μg/ml), and maintained in log phase prior to experimental setup. Prior to the experiment THP-1 were treated with PMA (Phorbol 12-myristate 13-acetate) (10 μg/ml) for 24 hours. The day of the experiment the media was removed and attaching cells were treated with trypsin for 2 minutes, cells were then collected, washed with PBS (phosphate buffer saline), spin down, resuspended in 2% heat inactivated FBS with RPMI at a concentration of 1×10^6 cells/ml, and 100 μl was plated in a 96 well plate. Compounds were dissolved in dimethyl sulfoxide (DMSO) and added to the culture medium to achieve desired concentration (e.g. 100, 30, 10, 3, 1, 0.3 or 0.1 μM). Cells were incubated with compounds for 4 hours. Cell free supernatant was collected and the production of IL-1β was evaluated by ELISA. A vehicle only control was run concurrently with each experiment. Final DMSO concentration was 1%.
Measurement of IL-1β Production in PMA-Differentiated THP-1 Cells (Alternative Procedure)
THP-1 cells were purchased from the American Type Culture Collection and sub-cultured according to instructions from the supplier. Prior to experiments, cells were cultured in RPMI 1640 containing 10% heat inactivated FBS, penicillin (100 units/ml), streptomycin (100 μg/ml), HEPES (10 mM) and sodium pyruvate (1 mM) and maintained in log phase prior to experimental setup. Prior to the experiment, THP-1 cells were treated with PMA (Phorbol 12-myristate 13-acetate) (20 μg/ml) overnight. The day of the experiment, the media was removed and attached cells were treated with trypsin for 2 minutes, cells were then collected, washed with PBS (phosphate buffer saline), pelleted by centrifugation and resuspended in 2% heat inactivated FBS with RPMI at a concentration of 50,000 cells/well in a 384 well plate. Cell free supernatant was collected and the production of IL-1β was evaluated by ELISA. Compounds were dissolved in dimethyl sulfoxide (DMSO) and added to the culture medium to achieve desired concentration (e.g. 100, 30, 10, 3, 1, 0.3 or 0.1 μM). Cells were incubated with compounds for 2 hours. A vehicle only control was run concurrently with each experiment. Final DMSO concentration was 1%.
Measurement of IL-1β Production—hTRF Protocol (Second Alternative Procedure)
Serial dilutions of compounds in DMSO were added to low volume 384 well plates at 100 nl/well using an ECHO 550 acoustic dispenser (Labcyte) to achieve final starting concentration of 10 μM in assay.
THP-1 cells in RPMI (Gibco, 11875) media with 10% FBS at a density of 1×10^6 cell/ml in a T175 flask were treated with a final concentration of phorbol 12-myristate 13-acetate (PMA) (Sigma, P1585) of 50 ng/ml overnight at 37° C. at 5% CO2 for differentiation. Cells were harvested the next day after rinsing well wth dPBS using 0.5% trypsin. A cell solution was prepared of 1×10^6 cells/ml for 50,000 cells in 50 μl/well in RPMI media with 2% FBS. Cells were plated using a multichannel pipette onto the compound dilutions in Greiner, 384 well, black clear bottom tissue culture treated plates (781090). The plates were incubated in 37° C. incubator at 5% CO2 for 2 hours.
After the 2 hour incubation, the cell plates were spun in the centrifuge for 5 minutes at 1200 rpm. Using the Felix (CyBio), 8 μl of the supernatant was transferred to 384 well, low volume, white proxy plates. (Perkin Elmer, 6008230). A human IL1beta hTRF kit was used to analyze the supernatant (CISBIO, 62HIL1BPEG). The kit instructions were followed for preparing the IL1Beta standard curve and then the antibodies from the kit were diluted 1:40 rather than 1:20 as kit instructed. […]

Another assay has as its target T2, human TLR7 (Homo sapiens, UniProt Q9NYK1).
T2 construct: host or cells: human HEK-Blue cells co-expressing TLR7 and an NF-kB/AP1-inducible SEAP reporter
T2 sequence (Q9NYK1 27-1049): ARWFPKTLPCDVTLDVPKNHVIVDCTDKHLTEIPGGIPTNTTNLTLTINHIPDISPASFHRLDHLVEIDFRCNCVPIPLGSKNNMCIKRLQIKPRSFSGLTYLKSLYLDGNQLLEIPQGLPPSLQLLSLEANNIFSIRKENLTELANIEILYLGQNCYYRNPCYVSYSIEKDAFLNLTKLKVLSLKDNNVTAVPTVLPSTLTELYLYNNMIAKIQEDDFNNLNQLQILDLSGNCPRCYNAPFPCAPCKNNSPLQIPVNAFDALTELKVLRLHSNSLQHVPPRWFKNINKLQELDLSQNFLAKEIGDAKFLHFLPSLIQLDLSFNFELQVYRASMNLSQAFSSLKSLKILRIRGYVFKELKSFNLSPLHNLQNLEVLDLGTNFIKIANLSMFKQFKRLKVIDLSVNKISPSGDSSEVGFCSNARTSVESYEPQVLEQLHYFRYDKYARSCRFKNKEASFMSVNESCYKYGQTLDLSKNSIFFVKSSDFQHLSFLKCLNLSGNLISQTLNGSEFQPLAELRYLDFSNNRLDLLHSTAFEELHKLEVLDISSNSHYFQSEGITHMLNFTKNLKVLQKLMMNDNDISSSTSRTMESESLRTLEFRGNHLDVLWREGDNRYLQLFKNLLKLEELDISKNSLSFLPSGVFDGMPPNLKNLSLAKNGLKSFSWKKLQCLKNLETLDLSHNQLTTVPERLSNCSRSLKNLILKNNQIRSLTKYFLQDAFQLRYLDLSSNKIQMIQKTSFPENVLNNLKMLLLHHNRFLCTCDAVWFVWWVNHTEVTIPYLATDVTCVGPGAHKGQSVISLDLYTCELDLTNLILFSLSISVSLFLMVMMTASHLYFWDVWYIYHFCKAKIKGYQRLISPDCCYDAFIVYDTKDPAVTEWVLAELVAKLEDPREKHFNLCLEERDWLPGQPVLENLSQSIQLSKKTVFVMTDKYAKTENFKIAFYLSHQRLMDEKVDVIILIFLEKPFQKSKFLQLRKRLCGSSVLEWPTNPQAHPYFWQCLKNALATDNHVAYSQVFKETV
In words: In vitro human TLR7 binding reporter assay (HEK-Blue cells, NF-kB/AP1-inducible SEAP reporter). To be noted: HEK-Blue cells expressing TLR7, SEAP reporter; read-out: TLR7 agonist EC50. In kind it is cell-based. On the procedure: In Vitro Human TLR7 and TLR8 Binding Reporter Assays
Logarithmically-growing human HEK-Blue cells co-expressing a TLR7 or TLR8 gene and a NF-kB/AP1-inducible SEAP (secreted embryonic alkaline phosphatase; Invivogen, San Diego, CA) reporter gene are added to individual wells of a 384-well plate (15,000 cells per 20 μL per well) and maintained for 24 h at 37° C., 5% CO2. Test compounds or DMSO are distributed to separate wells the next day using acoustic liquid handling technology (100 nL per well) and cells are subsequently incubated for 18 h at 37° C., 5% CO2. Cellular SEAP production is measured using an Envision plate reader instrument thirty minutes after adding freshly-made Quanti-Blue reagent (prepared by following manufacturer instructions; Invivogen, San Diego, CA) to the HEK-Blue TLR Nf-kB-SEAP cell reactions. All EC50 values (half-maximal effective concentration) are determined using proprietary data analysis software.
In general terms: A reporter such as luciferase makes a cellular process visible.

Where only a bound is given, the exact number is not on record here.

As usually defined, the EC50 is the concentration at which the effect is half-maximal.

T1 sequence (Q96P20 whole entry): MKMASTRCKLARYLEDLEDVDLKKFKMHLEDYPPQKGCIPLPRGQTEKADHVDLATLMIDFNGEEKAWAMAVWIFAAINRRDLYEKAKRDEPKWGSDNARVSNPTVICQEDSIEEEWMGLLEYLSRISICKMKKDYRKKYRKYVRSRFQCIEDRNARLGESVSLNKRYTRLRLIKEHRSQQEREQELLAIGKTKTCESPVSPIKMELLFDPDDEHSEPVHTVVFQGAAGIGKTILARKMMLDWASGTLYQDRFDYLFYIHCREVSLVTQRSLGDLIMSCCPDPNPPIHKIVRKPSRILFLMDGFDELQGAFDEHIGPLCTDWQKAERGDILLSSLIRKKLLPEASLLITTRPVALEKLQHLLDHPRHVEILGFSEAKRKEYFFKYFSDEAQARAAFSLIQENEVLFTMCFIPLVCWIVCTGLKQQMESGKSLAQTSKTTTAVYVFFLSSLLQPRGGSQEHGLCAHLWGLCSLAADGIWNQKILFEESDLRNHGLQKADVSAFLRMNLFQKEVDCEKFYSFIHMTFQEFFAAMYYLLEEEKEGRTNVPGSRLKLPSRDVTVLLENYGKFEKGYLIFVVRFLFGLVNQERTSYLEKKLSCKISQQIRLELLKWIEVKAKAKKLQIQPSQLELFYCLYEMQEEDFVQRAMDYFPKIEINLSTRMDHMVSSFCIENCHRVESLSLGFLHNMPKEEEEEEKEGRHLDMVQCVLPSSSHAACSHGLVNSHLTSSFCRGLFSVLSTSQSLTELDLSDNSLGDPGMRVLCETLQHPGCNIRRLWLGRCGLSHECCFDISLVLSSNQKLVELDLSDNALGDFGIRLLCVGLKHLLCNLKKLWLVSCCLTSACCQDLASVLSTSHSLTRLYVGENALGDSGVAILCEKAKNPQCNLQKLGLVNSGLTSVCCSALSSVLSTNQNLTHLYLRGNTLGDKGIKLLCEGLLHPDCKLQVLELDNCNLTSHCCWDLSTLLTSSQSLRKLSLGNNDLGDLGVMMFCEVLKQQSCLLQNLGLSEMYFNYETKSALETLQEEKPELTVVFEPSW

Consider `Nc1cc(NC23CC(CO)(C2)C3)c2ccc(-c3ccn[nH]3)cc2n1` [Example 16, (3-((2-amino-7-(1H-pyrazol-5-yl)quinolin-4-yl)amino)bicyclo[1.1.1]pentan-1-yl)methanol], for which the EC50 is 130 nM at NLRP3 and less than 50000 nM on human TLR7.

With `C=CC12CCC(CNc3cc(N)nc4cc(-c5ccn[nH]5)ccc34)(CC1)CO2` [Example 25, 7-(1H-pyrazol-3-yl)-N4-((1-vinyl-2-oxabicyclo[2.2.2]octan-4-yl)methyl)quinoline-2,4-diamine], the results for the EC50 on NLRP3 and at human TLR7 were 2000 nM and less than 50000 nM, respectively.
